ChEMBL document CHEMBL1857833, “Screening and optimization of specific chemical series against human African Trypanosomiasis (HAT)”
Values after ≈ are worked out from the molar mass of the structure shown. Values joined by “and” are separate entries in the source; they are usually repeats but may differ in a detail not shown here. Identical values can stand only once.

Legend:
[1] = (§1) DNDI: Cytotoxicity against L929 mouse fibroblasts, 72 hour.; format: toxicity, cell-based; details: mouse, L929 mouse fibroblasts
Trypanosoma brucei [2] = test: DNDI: Inhibition of Human African Trypanosomiasis, SBRI 427, in vitro; format: functional, organism-based
[3] = DNDI: Lipophilicity measured in Chromatographic hydrophobicity index (CHI) assay, pH 7.4; format: physicochemical; details: buffer
[4] = DNDI: half-life in mouse S9 microsomes at a concentration of 1uM; format: ADME, subcellular, Liver, S9 fraction
MDR1 (ABCB1) [5] = target: T1, MDR1 (ABCB1) (Homo sapiens, UniProt P08183); test: DNDI: % of compound recovered from apical to basolateral permeability assay in MDCK cells transfected with human MDR1 after 60 mins at a concentration of 3uM; format: ADME, cell-based, Canis lupus familiaris; details: dog
T1 sequence (P08183 whole entry): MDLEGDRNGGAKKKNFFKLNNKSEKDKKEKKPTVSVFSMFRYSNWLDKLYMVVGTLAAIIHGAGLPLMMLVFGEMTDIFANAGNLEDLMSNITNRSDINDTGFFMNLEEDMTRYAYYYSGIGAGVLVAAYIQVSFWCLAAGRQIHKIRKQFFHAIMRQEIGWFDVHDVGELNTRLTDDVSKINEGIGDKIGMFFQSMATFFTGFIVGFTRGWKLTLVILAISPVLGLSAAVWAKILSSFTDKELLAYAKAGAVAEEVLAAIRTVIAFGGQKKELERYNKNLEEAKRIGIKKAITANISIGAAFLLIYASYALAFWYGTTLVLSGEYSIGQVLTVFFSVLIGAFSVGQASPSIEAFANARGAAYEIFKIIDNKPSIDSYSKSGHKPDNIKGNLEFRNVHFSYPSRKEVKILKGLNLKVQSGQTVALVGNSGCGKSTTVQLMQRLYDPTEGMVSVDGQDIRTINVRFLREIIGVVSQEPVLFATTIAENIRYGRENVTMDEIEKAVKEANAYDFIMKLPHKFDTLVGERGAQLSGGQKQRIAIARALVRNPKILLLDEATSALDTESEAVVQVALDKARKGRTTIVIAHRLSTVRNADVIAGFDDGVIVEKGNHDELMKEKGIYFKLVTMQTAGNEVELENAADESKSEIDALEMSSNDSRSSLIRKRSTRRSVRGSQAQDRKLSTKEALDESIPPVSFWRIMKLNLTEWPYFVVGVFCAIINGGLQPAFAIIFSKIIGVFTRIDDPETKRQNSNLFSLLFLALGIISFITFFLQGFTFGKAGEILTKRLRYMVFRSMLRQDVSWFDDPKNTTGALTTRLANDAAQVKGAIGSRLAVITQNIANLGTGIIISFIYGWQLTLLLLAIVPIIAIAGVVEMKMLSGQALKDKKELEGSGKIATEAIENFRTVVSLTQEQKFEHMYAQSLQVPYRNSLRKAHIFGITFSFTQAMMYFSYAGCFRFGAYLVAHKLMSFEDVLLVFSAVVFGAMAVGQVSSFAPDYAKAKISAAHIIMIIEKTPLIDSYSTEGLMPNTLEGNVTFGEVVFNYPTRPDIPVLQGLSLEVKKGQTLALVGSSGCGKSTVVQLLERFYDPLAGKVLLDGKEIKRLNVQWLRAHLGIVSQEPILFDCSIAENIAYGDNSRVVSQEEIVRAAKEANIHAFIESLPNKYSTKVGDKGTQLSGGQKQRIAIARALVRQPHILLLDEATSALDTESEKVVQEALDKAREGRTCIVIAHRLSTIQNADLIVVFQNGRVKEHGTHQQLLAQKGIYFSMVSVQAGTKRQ

MDR1 (ABCB1) [6] = target: T1, MDR1 (ABCB1); test: DNDI: Apparent permeability from apical to basolateral side of the MDCK cell transfected with human MDR1after 60 mins at a concentration of 3uM; format: ADME, cell-based, Canis lupus familiaris; details: dog, MDCK-MDR1
MDR1 (ABCB1) [7] = target: T1, MDR1 (ABCB1); test: DNDI: % of compound recovered from apical to basolateral permeability assay in MDCK cells transfected with human MDR1 after 60 mins at a concentration of 3uM in the presence of GF120918; format: ADME, cell-based, Canis lupus familiaris; details: dog, MDCK-MDR1, with GF120918 (concentration not stated)
[8] = DNDI: Solubility in phosphate buffered saline at pH7.4 measured by nephelometry at room temperature (NEPH-RT); format: physicochemical; details: pH 7.4
[9] = DNDI: Cytotoxicity against L929 mouse fibroblasts, CYTO-SP, 24 hour; format: toxicity, cell-based; details: mouse, L929 mouse fibroblasts
Trypanosoma brucei [10] = test: DNDI: Inhibition of Human African Trypanosomiasis, Cross 22, in vitro; format: functional, organism-based
[11] = mouse, microsomes, 1 µM
Description: (§2) DNDI: in vitro intrinsic clearance in mouse liver microsomes at a concentration of 1uM

[12] = mouse, microsomes, 1 µM; remark: listed apart in the source
Description: (§3) DNDI: half life in mouse liver microsomes at a concentration of 1uM

in vitro [13] = details: human, t (1 / 2)
Description: DNDI: half life in human liver microsomes at a concentration of 1uM

in vitro [14] = details: human, CLint in vitro
Description: DNDI: in vitro intrinsic clearance in human liver microsomes at a concentration of 1uM

Trypanosoma cruzi = test: DNDI: Inhibition of Chagas Disease parasite Trypanosoma cruzi (Tulahuen LacZ, Clone C4), in vitro.; format: functional, organism-based
[15] = DNDI: Cytotoxicity against L-6 rat myoblasts from skeletal muscle cells; format: toxicity, cell-based, L6; details: L-6 rat skeletal muscle myoblasts
[16] = system: Trypanosoma brucei rhodesiense; test: DNDI: Inhibition of Human African Trypanosomiasis (HAT), STIB 900, in vitro; format: functional, organism-based
Trypanosoma brucei [17] = test: DNDI: Mean survival time in days (MSD) of mice after intraperitoneal injection of Human African Trypanosomiasis (HAT), EATRO 110, in vivo at 20 mg/kg/day for 4 days.; format: functional, Mus musculus
Trypanosoma brucei [18] = test: DNDI: Mean survival time in days (MSD) of mice after intraperitoneal injection of Human African Trypanosomiasis (HAT), EATRO 110, in vivo at 5 mg/kg/day for 4 days.; format: functional, Mus musculus
Leishmania donovani = test: DNDI: Inhibition of formation of Leishmania donovani (strain MHOM/ET/67/L82) axenic amastigotes, in vitro.; format: functional, organism-based
Plasmodium falciparum = test: DNDI: Inhibition of the malaria parasite Plasmodium falciparum, in vitro; format: functional, organism-based; details: K1
[19] = DNDI: half life in human liver microsomes at a concentration of 10uM; format: ADME, Microsome
[20] = DNDI: in vitro intrinsic clearance in human liver microsomes at a concentration of 10uM; format: ADME, Microsome
[21] = DNDI: in vitro intrinsic clearance in mouse liver microsomes at a concentration of 10uM; format: ADME, Microsome; details: read-out: CLint in vitro
[22] = DNDI: half life in mouse liver microsomes at a concentration of 10uM; format: ADME, Microsome
[23] = DNDI: Solubility in phosphate buffered saline at pH7.4 measured by optical density (turbidimetry) at room temperature (OD-RT); format: physicochemical; details: pH 7.4
in vitro [24] = details: mouse, t (1 / 2)
Description: as §3

in vitro [25] = details: mouse
Description: as §2

L929 = test: as §1; format: toxicity, cell-based; details: l929
MDR1 (ABCB1) [26] = target: T1, MDR1 (ABCB1); test: DNDI: Efflux ratio for permeability from basolateral to apical side to apical to basolateral side of MDCK cells transfected with human MDR1; format: ADME, cell-based, Canis lupus familiaris; details: dog, MDCK-MDR1; read-out: Calculated Ratio
[27] = Trypanosoma brucei, SBRI 427, read-out: IC50

Structure (SMILES)	IC50 at 72 h [1]	IC50 (Trypanosoma brucei [2]; [27])	chromatographic logD [3]	solubility kinetic [8]	IC50 at 24 h [9]	IC50 (Trypanosoma brucei [10])	IC50 (Trypanosoma brucei [2])	CLint in vitro [11]	t (1 / 2) [12]	IC50 (Trypanosoma cruzi)	IC50 [15]	IC50 [16]	MSD (Trypanosoma brucei [17])	IC50 (Leishmania donovani)	IC50 (Plasmodium falciparum)	half-life at 10 µM [19]	CLint in vitro [20]	microsomal CLint at 10 µM [21]	half-life at 10 µM [22]	solubility kinetic [23]	other results
CN(C)CCNc1cc(-c2ccccc2)nc2cc(-c3ccc(F)cc3)nn12	> 10 µg/mL	1.53 µg/mL (≈ 4.08 µM)	5.2	25 µM (≈ 9.39 µg/mL)	–	–	–	–	–	–	–	–	–	–	–	–	–	–	–	–	half-life at 1 µM [4]: > 5.83 h; recovery at 1 h, 3 µM (MDR1 (ABCB1) [5]): 100%; Papp A→B at 1 h, 3 µM (MDR1 (ABCB1) [6]): 8.84 ×10⁻⁶ cm/s; recovery at 1 h, 3 µM (MDR1 (ABCB1) [7]): 70%
CCCCOc1ccc(-c2nc(CNC3CCCCCC3)co2)cc1	< 3.13 µg/mL	0.38 µg/mL (≈ 1.11 µM)	5.34	< 1 µM	11.7 µg/mL (≈ 34.2 µM)	0.4 µg/mL (≈ 1.17 µM)	0.3 µg/mL and 0.39 µg/mL	32 µL/min/mg and 11 µL/min/mg	26 min and 78 min	–	–	–	–	–	–	–	–	–	–	–	half-life at 1 µM (in vitro [13]; liver microsomes): 0.383 h; microsomal CLint at 1 µM (in vitro [14]; liver microsomes): 38 µL/min/mg
O/N=C(\NCC1CC1)c1ccccc1-c1ccccc1	> 10 µg/mL	1.15 µg/mL (≈ 4.32 µM)	4.04	> 200 µM	> 50 µg/mL	–	–	93 µL/min/mg	–	> 30 µg/mL	72.3 µg/mL (≈ 271 µM)	8.1 µg/mL (≈ 30.4 µM)	1 days	32.3 µg/mL (≈ 121 µM)	3.14 µg/mL (≈ 11.8 µM)	10.6 h	5 µL/min/mg	117 µL/min/mg	0.417 h	> 200 µM	MSD (Trypanosoma brucei [18]): 4 days; logD [3]: 3.96; half-life at 1 µM (in vitro [24]; microsomes): 0.15 h
CCCCCC(C)NCc1coc(-c2ccc(OCCCC)cc2)n1 (centres undefined)	1.54 µg/mL (≈ 4.47 µM)	0.38 µg/mL (≈ 1.1 µM)	5.01	–	> 50 µg/mL	0.36 µg/mL (≈ 1.04 µM)	0.29 µg/mL and 0.22 µg/mL	10 µL/min/mg	84 min	1.5 µg/mL (≈ 4.35 µM)	2.66 µg/mL (≈ 7.72 µM)	0.278 µg/mL (≈ 0.807 µM)	–	4.92 µg/mL (≈ 14.3 µM)	0.825 µg/mL (≈ 2.39 µM)	1.73 h	28 µL/min/mg	15 µL/min/mg	3.12 h	1.6 µM (≈ 0.551 µg/mL)	microsomal CLint at 1 µM (in vitro [25]; liver microsomes): 12 µL/min/mg; half-life at 1 µM (in vitro [24]; liver microsomes): 1.17 h
CCCCc1ccc(-c2nc(CNC3CCCCCC3)co2)cc1	1.23 µg/mL (≈ 3.77 µM)	0.36 µg/mL (≈ 1.1 µM)	5.49	13 µM (≈ 4.24 µg/mL)	> 50 µg/mL	0.4 µg/mL (≈ 1.23 µM)	0.18 µg/mL and 0.33 µg/mL	–	–	1.43 µg/mL (≈ 4.38 µM)	2.85 µg/mL (≈ 8.73 µM)	0.383 µg/mL (≈ 1.17 µM)	3.5 days	10.1 µg/mL (≈ 30.8 µM)	0.739 µg/mL (≈ 2.26 µM)	–	–	–	–	–	MSD (Trypanosoma brucei [18]): 4 days; half-life at 1 µM (in vitro [13]; microsomes): 0.8 h; microsomal CLint at 1 µM (in vitro [14]; microsomes): 18 µL/min/mg
CCCCCC(C)NCc1coc(-c2ccc(OC(C)C)cc2)n1 (centres undefined)	2.58 µg/mL (≈ 7.81 µM)	1.07 µg/mL (≈ 3.24 µM)	4.56	–	> 50 µg/mL	–	–	24 µL/min/mg	–	–	–	–	–	–	–	1.3 h	37 µL/min/mg	36 µL/min/mg	1.35 h	12.5 µM (≈ 4.13 µg/mL)	IC50 (L929): 3.42 µg/mL (≈ 10.3 µM); half-life at 1 µM (in vitro [24]; microsomes): 0.583 h
COc1ccccc1CNC(CCc1ccccc1)c1nc(Cc2ccccc2)c(N2CCCCC2)o1 (centres undefined)	8.24 µg/mL (≈ 16.6 µM)	4.41 µg/mL (≈ 8.9 µM)	–	2 µM (≈ 0.991 µg/mL)	–	–	–	487 µL/min/mg	–	–	–	–	–	–	–	–	–	–	–	–	microsomal CLint at 1 µM (in vitro [25]; liver microsomes): 471 µL/min/mg; half-life at 1 µM (in vitro [24]; liver microsomes): 0.0333 h
CCCCCC(C)NCc1coc(-c2ccc(CCCC)cc2)n1 (centres undefined)	1.48 µg/mL (≈ 4.51 µM)	–	5.51	–	> 50 µg/mL	0.3 µg/mL (≈ 0.913 µM)	–	11 µL/min/mg	81 min	2.8 µg/mL (≈ 8.52 µM)	2.31 µg/mL (≈ 7.03 µM)	0.186 µg/mL (≈ 0.566 µM)	3.4 days	5.25 µg/mL (≈ 16 µM)	0.647 µg/mL (≈ 1.97 µM)	1.62 h	30 µL/min/mg	16 µL/min/mg	2.98 h	1.6 µM (≈ 0.526 µg/mL)	microsomal CLint at 1 µM (in vitro [25]; microsomes): 12 µL/min/mg; half-life at 1 µM (in vitro [24]; microsomes): 1.22 h
Cc1cc(NCCN(C)C)n2nc(-c3cccc(F)c3)cc2n1	> 10 µg/mL	> 5 µg/mL	4.09	100 µM (≈ 31.3 µg/mL)	–	–	–	–	–	–	–	–	–	–	–	–	–	–	–	–	half-life at 1 µM [4]: 0.317 h; recovery at 1 h, 3 µM (MDR1 (ABCB1) [5]): 97%; Papp A→B at 1 h, 3 µM (MDR1 (ABCB1) [6]): 46.6 ×10⁻⁶ cm/s; recovery at 1 h, 3 µM (MDR1 (ABCB1) [7]): 108%; efflux ratio (MDR1 (ABCB1) [26]): 0.14
CCCCc1ccc(-c2nc(CNCC(C)(C)CN(C)C)co2)cc1	4.92 µg/mL (≈ 14.3 µM)	1.55 µg/mL (≈ 4.51 µM)	–	–	–	–	–	–	–	–	–	–	–	–	–	–	–	–	–	–	IC50 (L929): 2.73 µg/mL (≈ 7.95 µM)
